Assay results from patent publication US10308938B2, “Compositions and methods to activate or inhibit toll-like receptor signaling” (priority 2014, dated 2019).
Oligonucleotides are written 5' to 3', each unit as a sugar letter and its base; * is a phosphorothioate linkage, no mark a phosphodiester; rarer units and linkages stand in square brackets, end groups in braces. Plain capitals give the bases only. d = 2'-deoxy (DNA)

Experiments:
CD4^+ T cells [1] = assay: Proliferation of CFSE-labeled CD4+ T cells stimulated with anti-CD3 and anti-CD28 in the presence of TLR ligands; assay type: cell-based, human; conditions: for proliferation of CD4+ T cells (frequency of proliferating cells): compared to control; for inhibition of proliferation, level relative to IMQ: three days
Text: Cell isolation and FACS sorting of T cell populations. Peripheral blood mononuclear cells (PBMC) were isolated from healthy donors by Ficoll Hypaque gradient centrifugation. Total CD4^+ T cells were isolated by negative selection using CD4^+ T cell isolation kit (StemCell Technologies, Vancouver, BC) and stained for fluorescence-activated cell sorting (FACS) with the following antibodies: anti-CD45RO (clone UCHL1), CD45RA (clone H1100), CD25 (clone M-A251) (all from BD Biosciences) and CD127 (clone eBioRDR5) from eBioscience (San Diego, Calif.). The Treg (CD4^+CD25^hiCD127^low/neg) memory T cell (CD4^+CD45RA^−CD45RO^+CD25^low/neg+) and naïve T cell (CD4^+CD45RA^+CD45RO^−CD25^low/neg) populations were sorted on a FACS Aria (BD Biosciences). Unless specified, CD4^+ T cells used in the experiments were Treg-depleted CD4^+ T cells and they were sorted as CD4^+CD25^pos/lowCD127^+. The purity of the sorted CD4^+ T cell population was >98% as assessed by CD3 and CD4 staining after sort. CD14^+ cells were isolated by positive selection using EasySep™ Human CD14 Positive Selection Kit (StemCell Technologies).
(§1) Cell activation and intracellular staining.
While examining the costimulatory role of TLR on CD4^+ T cells, it was unexpectedly discovered that entry of CD4^+ cells into cell cycle with T cell receptor cross-linking and anti-CD28 was blocked by TLR7 engagement. Specifically, CD4^+ T cells were stimulated with anti-CD3 and anti-CD28 in the presence of different TLR agonists followed by analysis of proliferation and cytokine secretion.

CD4^+ T cells [2] = assay: Cytokine secretion by stimulated CD4+ T cells, ELISA; assay type: cell-based, human; conditions: day 3 after stimulation
Text: as §1
(§2) Enzyme-linked immunosorbent assay.

HIV-1 (NL-432) = assay: HIV-1 infection of humanized MISTRG mice, viral load; assay type: in vivo, mouse; conditions: 20 μM IRS661 at day 0 or day 14 after infection
Protocol: Mouse experiments. MISTRG mice (Nature Biotechnology 2014; 32; 364-372) were infected with HIV-1 (50 ng p24) at day 0 in the presence of 20 μM IRS661 or control sequence (at either day 0 or day 14). Serum was obtained at different time points and RNA was isolated by Direct-zol RNA MiniPrep kit (Zymo Research). Viral load was measured by Gag amplification by Real Time PCR
In order to test the role of TLR7 inhibition in HIV-1 infection in vivo, a humanized mouse model (Rongvaux et al., Nat. Biotech., 32:364-372 (2014)) was used. Three groups of mice were infected with HIV-1 (NL-432): one control group, another group that was injected with IRS661 at the same time of HIV-1 infection (day 0), and a third group where IRS661 was injected at the peak of infection (day 14 after HIV-1 infection). […] For those mice that were injected with IRS661 at day 14 after infection (FIG. 55, white dots), viral load was measured at day 21 after infection. One mouse from the control group (black dots) died at day 17.

HIV-1 [3] = conditions: supernatants every three days, 14 days
Text: CD4^+ T cells isolated from HIV-1 infected patients (Table 3) were stimulated in the presence of IRS661 (FIG. 50) or were transduced with two TLR7-specific shRNA (FIG. 51) with supernatant collections every three days for a total of 14 days to measure virus concentration by p24 ELISA.

memory T cells = assay: IMQ pretreatment, washout, rest and restimulation with anti-CD3 and anti-CD28; assay type: cell-based, human; conditions: IRS661 pretreated cells
Protocol: as §2
To determine if pretreatment of CD4^+ T cells with IMQ would be sufficient to diminish their subsequent cytokine secretion and proliferative response to a full stimulation, memory T cells were pre-treated with IMQ for 2 hours and rested for 12 hours after washout to remove traces of IMQ and then stimulated with anti-CD3 and anti-CD28 for 3 days.

HIV-1 [4] = conditions: day seven; compared to control cells
Protocol: Furthermore, proviral integrated DNA load was measured at day seven after stimulation in the presence of IRS661 or a control sequence (FIG. 52) and after transduction with TLR7-specific shRNA (FIG. 53) to monitor the cellular viral reservoir.

CD4^+ T cells [5] = assay: Anergy-related gene expression, TaqMan real-time PCR; assay type: cell-based, human; conditions: preincubation with IRS661 before IMQ
Text: (§3) Quantification of mRNA expression levels by RT-PCR. RNA was isolated using QIAGEN RNeasy Micro Plus Kit (QIAGEN, Valencia, Calif.), following manufacturer's guidelines and converted to cDNA by reverse transcription (RT) with random hexamers and Multiscribe RT (TQMN, Reverse Transcription Reagents; Applied Biosystems, Foster City, Calif.). For mRNA gene expression assays, probes were purchased from Applied Biosystems (Table 2) and the reactions were set up following manufacturer's guidelines and run on a StepOne Real-Time PCR System (Applied Biosystems). Values are represented as the difference in Ct values normalized to β2-microglobulin for each sample as per the following formula: Relative RNA expression=(2^−dCt)×1000.
To examine whether TLR7 stimulation and subsequent NFAT dephosphorylation induces the expression of anergy-related genes, CD4^+ T cells were incubated for 2-16 hours with IMQ in the presence or absence of the TLR7 inhibitory sequence IRS661 and RNA was isolated to examine the hypothesis that TLR7 engagement induced expression of anergy-related genes previously described. As a control for anergy-related gene expression, CD4^+ T cells were incubated with either ionomycin and PMA or ionomycin alone. […] The effect observed in the regulation of these genes was TLR7-specific, as preincubation of CD4^+ T cells with IRS661 before IMQ treatment abrogated the increase in anergy-related gene expression.

HIV-1^+CD4^+ T cells = assay: Anergy-related gene expression in in vitro HIV-1-infected CD4+ T cells; assay type: cell-based, human; conditions: day seven after infection
Text: as §3
To confirm this observation, the expression of anergy-related genes in in vitro HIV-1-infected CD4^+ T cells from five healthy donors in the presence of IRS661 (to inhibit TLR7) or a control sequence at day seven after infection was examined (FIG. 40).

CD4^+ T cells [6] = assay: Intracellular calcium measurement (INDO-1AM); assay type: cell-based, human
Protocol: Intracellular calcium measurements. Ex vivo isolated CD4^+ T cells were labeled with 5 μM INDO-1AM for one hour at 37° C. in PBS, 1 mM Ca^2+. Cells were washed to remove traces of INDO-1AM, resuspended in buffer at 10^6 cells/ml and incubated for 30 minutes at 37° C. before analysis. When necessary, IRS661 was added at the indicated concentration during the 30 minute incubation. For acquisition, the sample was acquired for approximately 3 minutes to obtain basal levels of calcium and subsequently IMQ or other reagents were added at the indicated concentrations. Samples were acquired for a minimum of 10 minutes on a BD Fortessa instrument and analysed with FlowJo software.

HIV-1NL-D = assay: HIV-1 in vitro infection of CD4+ T cells; assay type: cell-based; conditions: for frequency of HIV-1-infected CD4+ T cells: treatment before infection, MOI 0.001
Protocol: Preparation of HIV-1 virus stocks. HIV-1 proviral DsRed-tagged DNA pNL-D (derived from the prototype HIV-1 proviral DNA pNL432) was kindly provided by Dr. Yasuko Tsunetsugu-Yokota. 293T cells were used to prepare viral stocks following published protocols with minor modifications. In brief, 293T cells were plated at 0.5×10^6/well in 12-well plates and transfected with 2 μg pNL-D using Lipofectamine 2000 (Invitrogen) for 48 hours. Culture supernatant was treated with benzonase (1U/ml) for 30 minutes at 37 C, cleared by filtration and titrated on 293T cells. Stocks were stored at −80 C.
HIV-1 in vitro infection. CD4^+ T cells were stimulated with anti-CD3 (1 μg/ml) and anti-CD28 (1 μg/ml) for 48 hours and subsequently infected with HIV-1 at a MOI of 0.001 (concentration within the physiological range). Viability and cytokine secretion was measured every 48 hours for a total of 11 days after infection.
For HIV-1 infection on TLR7-deficient cells, CD4^+ T cells were stimulated as above and transduced with the corresponding lentiviral particles. 48 hours after transduction, the cells were infected with HIV-1NL-D at a MOI of 0.001. Viability and frequency of HIV-1-infected cells were measured at different time points by LIVE/DEAD cell dye staining and fixation with 1% PFA (to avoid DsRed signal loss). For intracellular staining after infection, the cells were restimulated with PMA and Ionomycin in the presence of GolgiStop for 4 hours and the staining was performed as recommended by Grupillo et al.

## C=CCn1c(=O)n([C@@H]2O[C@H](CO)[C@@H](O)[C@H]2O)c2nc(N)[nH]c(=O)c21 [Loxoribine]
CD4^+ T cells [1]
  proliferation of CD4+ T cells (frequency of proliferating cells): significant decrease
  inhibition of proliferation, level relative to IMQ: comparable to IMQ treatment
CD4^+ T cells [2]
  IFNγ secretion: inhibited
  IL-2 secretion: inhibited
  IL-4 secretion: inhibited
  IL-17 secretion: inhibited

## CCCCNc1nc(N)c2[nH]c(=O)n(Cc3ccc(C(=O)NCC(=O)O)cc3)c2n1 [CL264]
CD4^+ T cells [1]
  proliferation of CD4+ T cells (frequency of proliferating cells): significant decrease
CD4^+ T cells [2]
  IFNγ secretion: inhibited
  IL-2 secretion: inhibited
  IL-4 secretion: inhibited
  IL-17 secretion: inhibited

## CCNCc1nc2c(N)nc3ccccc3c2n1CC(C)(C)O [Gardiquimod]
CD4^+ T cells [1]
  proliferation of CD4+ T cells (frequency of proliferating cells): significant decrease
  inhibition of proliferation, level relative to IMQ: comparable to IMQ treatment
CD4^+ T cells [2]
  IFNγ secretion: inhibited
  IL-2 secretion: inhibited
  IL-4 secretion: inhibited
  IL-17 secretion: inhibited

## 5′-TGCTTGCAAGCTTGCAAGCA-3′ (DNA dT*dG*dC*dT*dT*dG*dC*dA*dA*dG*dC*dT*dT*dG*dC*dA*dA*dG*dC*dA) [IRS661]
HIV-1 (NL-432)
  HIV-1 viral load: decreases
HIV-1 [3]
  concentration of p24 in culture: strongly decreased
Memory T cells
  IMQ-induced decrease of IFNγ production: not observed
  IMQ-induced decrease of IL-2 production: not observed
HIV-1 [4]
  proviral DNA load: dramatic decrease
CD4^+ T cells [5]
  IMQ-induced increase in anergy-related gene expression: abrogated
HIV-1^+CD4^+ T cells
  expression of 12 anergy-related genes in HIV-1+CD4+ T cells: did not upregulate any of these genes
CD4^+ T cells [6]; pre-incubation with IRS661
  increase in calcium concentration upon IMQ stimulation: impaired

## Poly(I:C)
CD4^+ T cells [6]; INDO-1AM ratio over time
  intracellular calcium concentration: not observed

## COc1cc(N(CC(=O)OCOC(C)=O)CC(=O)OCOC(C)=O)c2nc(COc3cc(C)ccc3N(CC(=O)OCOC(C)=O)CC(=O)OCOC(C)=O)ccc2c1 [Quin-2 AM]
HIV-1NL-D
  frequency of viable cells: significantly decreased
  frequency of HIV-1-infected CD4+ T cells: marked decrease

## C[C@H](CCC(=O)O)C[C@H](C)C[C@H](C)C(=O)/C=C(\O)[C@H](C)C[C@H](C)C/C=C/[C@@H](C)[C@@H](O)[C@@H](C)[C@@H](O)C[C@@H]1CC[C@@](C)([C@H]2CC[C@@](C)([C@@H](C)O)O2)O1 [ionomycin]
HIV-1NL-D
  frequency of HIV-1-infected CD4+ T cells: increased
